Assays:
[1] = Cytotoxicity (MTT assay); format: cell-based, human; details: human; THP-1 cells, 72 hours' incubation
Description: The THP-1 cells were seeded in a 96-well plate (15.000 cells/well) and incubated with the test compounds at four different concentrations (0.1, 1, 10 and 100 μM), operating in triplicate. The cells were placed in an incubator at 37° C., with 5% CO2, and cell viability was measured after 72 hours' incubation, using the MTT assay. This is a colorimetric assay, based on conversion of water-soluble 3-(4,5-dimethylthiazol-2-yl)-2,5-diphenyltetrazolium bromide (MTT; Sigma-Aldrich) to a violet-coloured insoluble formazan, by the mitochondrial dehydrogenase present in the live cells. The formazan is solubilised in acidified isopropanol, and the concentration is determined by measuring absorbance with a microplate reader (Victor X4—Ensight, PerkinElmer) at λ=570 nm. Viability was expressed as a percentage of the viability of the control cells, which were either untreated or treated with the carrier. The IC50 was calculated with the Graph Pad Prism software.

[2] = target: T1, NLRP3 inflammasome (Homo sapiens, UniProt Q96P20); assay: NLRP3-dependent pyroptosis (LDH release) in PMA-differentiated THP-1 cells stimulated with LPS/ATP; format: cell-based; details: compounds at 10 μM for 1 hour; differentiated THP-1, LPS 10 μg/mL 4 hours, ATP 1.5 hours; read-out: Pyroptosis inhibition (% ± SEM)
T1 construct: The THP-1 cells were differentiated into macrophages by treating them with PMA 50 nM; endogenous in cells; host or cells: THP-1 (human monocytic leukaemia line), PMA-differentiated, primed with LPS, triggered with ATP
T1 sequence (Q96P20 whole entry): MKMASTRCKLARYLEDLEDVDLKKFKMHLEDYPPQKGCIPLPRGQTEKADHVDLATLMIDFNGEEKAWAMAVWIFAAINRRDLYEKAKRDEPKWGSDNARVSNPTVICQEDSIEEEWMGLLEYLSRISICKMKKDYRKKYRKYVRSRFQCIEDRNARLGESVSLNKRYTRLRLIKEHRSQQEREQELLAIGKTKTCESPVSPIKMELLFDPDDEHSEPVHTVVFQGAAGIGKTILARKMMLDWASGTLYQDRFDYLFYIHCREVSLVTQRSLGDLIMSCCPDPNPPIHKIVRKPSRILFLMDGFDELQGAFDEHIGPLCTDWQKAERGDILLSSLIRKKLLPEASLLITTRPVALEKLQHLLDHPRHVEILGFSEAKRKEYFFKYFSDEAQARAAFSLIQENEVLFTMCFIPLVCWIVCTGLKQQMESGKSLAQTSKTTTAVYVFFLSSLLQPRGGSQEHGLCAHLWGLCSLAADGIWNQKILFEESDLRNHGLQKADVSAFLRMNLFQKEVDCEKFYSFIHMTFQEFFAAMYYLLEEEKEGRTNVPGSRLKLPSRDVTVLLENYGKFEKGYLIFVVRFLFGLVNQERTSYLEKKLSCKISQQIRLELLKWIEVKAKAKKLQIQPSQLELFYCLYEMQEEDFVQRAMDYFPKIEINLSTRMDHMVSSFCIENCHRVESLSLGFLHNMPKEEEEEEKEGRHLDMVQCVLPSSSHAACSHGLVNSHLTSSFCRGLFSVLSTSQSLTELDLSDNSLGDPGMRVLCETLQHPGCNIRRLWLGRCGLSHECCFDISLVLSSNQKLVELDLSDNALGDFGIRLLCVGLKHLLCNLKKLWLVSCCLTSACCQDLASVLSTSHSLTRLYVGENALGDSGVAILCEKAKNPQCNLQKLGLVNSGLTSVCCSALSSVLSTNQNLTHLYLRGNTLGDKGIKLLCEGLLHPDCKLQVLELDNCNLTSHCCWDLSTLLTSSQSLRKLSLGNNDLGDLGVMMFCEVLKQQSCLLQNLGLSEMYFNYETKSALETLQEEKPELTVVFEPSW
Description: THP-1 cells, a monocytic human cell line derived from the peripheral blood of a patient suffering from acute monocytic leukaemia (www.atcc.org), were cultured in RPMI 1640 medium (Aurogene, Rome, Italy), with the addition of foetal bovine serum (10%, Aurogene), L-glutamine (2 mM, Aurogene), penicillin (100 IU/ml, Aurogene) and streptomycin ([…], Aurogene). The medium was changed every 2-3 days, and the cells were maintained in an incubator at 37° C., with 5% CO2, and with suitable humidity.
The cells were seeded in 48-well plates (90.000 cells/well), and differentiated with phorbol 12-myristate 13-acetate (PMA—50 nM, 24 hours; Sigma-Aldrich). On the next day, the differentiated THP-1s were washed twice with the balanced saline solution phosphate-buffered saline (PBS), and stimulated with lipopolysaccharide (LPS) (10 μg/mL, 4 hours; Sigma-Aldrich), prepared in serum-free medium. After 4 hours the cells were incubated with the compounds at the concentration of 10 μM for 1 hour, operating in triplicate; INF176 and INF177 were tested at three different concentrations: […]. Finally, the cells were stimulated with ATP 5 mm for 1.5 hours. The supernatants were then harvested for the subsequent analyses.
LDH release into the supernatant obtained as described above was quantified using the CytoTox 96 nonradioactive cytotoxicity assay (Promega Corporation, Madison, […], USA), a colorimetric assay wherein LDH activity is measured with an NADH-dependent enzymatic reaction:
Briefly, an equal volume of CytoTox Reagent was added to the supernatant and, after 30 minutes' incubation, the reaction was stopped by adding the stop solution. The formazan concentration was determined by measuring absorbance, using a microplate reader (Victor X4—EnSight, PerkinElmer, Waltham, MA, USA), at λ=490 nm. Cell death was expressed according to the manufacturer's instructions.
The compound INF176 was tested to measure its ability to inhibit NLRP3-dependent cell pyroptosis in human macrophages, using the experimental protocol previously published [Cocco et al. 2017].
The THP-1 cells were differentiated into macrophages by treating them with PMA 50 nM (24 hours) and then with LPS (10 μg/mL) for 4 hours. The cells were treated with the compound (10 μM) for 1 hour. Pyroptosis was induced by treatment with ATP 5 mm. After 90 minutes, cell death was evaluated by measuring the LDH level in the cell supernatant using the CytoTox 96 Non-Radioactive Cytotoxicity Assay (Promega Corporation, Madison, […], USA).

SMILES | IC50 at 72 h [1] [µM] | inhibition at 10 µM [2] [%]
CCOC(=O)C(Cc1ccccc1Cl)CS(=O)(=O)c1ccccc1 (centres unmarked) [INF49, ethyl 2-(2-chlorobenzyl)-3-(phenylsulphonyl)-propanoate] | > 100 | 50.6 ± 5.8
CCOC(=O)C(CSC1CCCCC1)Cc1ccccc1Cl (centres unmarked) [INF110, ethyl 2-(2-chlorobenzyl)-3-(cyclohexylthio)propanoate] | 66 ± 1.4 | < 10
CCCNC(=O)/C(=C/c1ccccc1Cl)CSc1ccccc1 [INF82, (Z)-3-(2-chlorophenyl)-2-((phenylthio)methyl)-N-propylacrylamide] | 63.3 ± 1.3 | 19 ± 4.1
CCOC(=O)[C@@H]1CCCN(C(=O)[C@@H](CSc2ccccc2)Cc2ccccc2Cl)C1 (racemic) [INF185, ethyl 1-(2-(2-chlorobenzyl)-3-(phenylthio)propanoyl)piperidine-3-carboxylate] | – | < 10
CCOC(=O)[C@@H](CS(=O)(=O)c1ccccc1)[C@H](O)c1ccccc1Cl (stereo in doubt) [INF45, ethyl 3-(2-chlorophenyl)-3-hydroxy-2-((phenylsulphonyl)methyl)propanoate] | > 100 | 45.8 ± 6.7
CCOC(=O)/C(=C/c1ccccc1Cl)CSC1CCCCC1 [INF56, (Z)-ethyl 3-(2-chlorophenyl)-2-((cyclohexylthio)methyl)acrylate] | > 100 | 41.6 ± 3.9
CCOC(=O)C(CSCC(NC(=O)OC(C)(C)C)C(=O)OC)Cc1ccccc1Cl (centres unmarked) [INF55, ethyl 3-((2-((tert-butoxycarbonyl)amino)-3-methoxy-3-oxopropyl)thio)-2-(2-chlorobenzyl)propanoate] | > 100 | < 10
CCOC(=O)[C@@H](CN1CCCC1)[C@H](O)c1ccccc1Cl (racemic) [INF37 syn] | – | 32.2 ± 5.7
CCOC(=O)C1CCCN(C(=O)/C(=C/c2ccccc2[N+](=O)[O-])CSc2ccccc2)C1 (centres unmarked) [INF231, ethyl (Z)-1-(3-(2-nitrophenyl)-2-((phenylthio)methyl)acryloyl)piperidine-3-carboxylate] | – | 32.6 ± 19.8
CCOC(=O)[C@H]1CCCN(C(=O)/C(=C/c2ccccc2Cl)CSc2ccccc2)C1 [INF203, ethyl (S,Z)-1-(3-(2-chlorophenyl)-2-((phenylthio)methyl)acryloyl)piperidine-3-carboxylate] | – | 14.4 ± 4.3
CCOC(=O)C1CCCN(C(=O)C(CSC2CCCCC2)Cc2ccccc2Cl)C1 (centres unmarked) [INF192, ethyl 1-(2-(2-chlorobenzyl)-3-(cyclohexylthio)propanoyl)piperidine-3-carboxylate] | 59.8 ± 0.7 | 62.2 ± 9.78
CCOC(=O)[C@H](CN1CCCC1)[C@H](O)c1ccccc1Cl (stereo in doubt) [INF37 anti] | – | 21.1 ± 2.9
CCOC(=O)C1CCN(C(=O)/C(=C/c2ccccc2Cl)CSc2ccccc2)CC1 [INF180, ethyl (Z)-1-(3-(2-chlorophenyl)-2-((phenylthio)methyl)acryloyl)piperidine-4-carboxylate] | > 100 | 13.8 ± 7.1
CCOC(=O)C1CCN(C(=O)C(CSC2CCCCC2)Cc2ccccc2Cl)CC1 (centres unmarked) [INF193, ethyl 1-(2-(2-chlorobenzyl)-3-(cyclohexylthio)propanoyl)piperidine-4-carboxylate] | 77.5 ± 7.3 | < 10
CCOC(=O)C1CCN(C(=O)C(CSc2ccccc2)Cc2ccccc2Cl)CC1 (centres unmarked) [INF186, ethyl 1-(2-(2-chlorobenzyl)-3-(phenylthio)propanoyl)piperidine-4-carboxylate] | 94.6 ± 4 | < 10
CCOC(=O)C1CCN(C(=O)/C(=C/c2ccccc2Cl)CSC2CCCCC2)CC1 [INF188, ethyl (Z)-1-(3-(2-chlorophenyl)-2-((cyclohexylthio)methyl)acryloyl)piperidine-4-carboxylate] | 58.6 ± 5.3 | < 10

SMILES | IC50 at 72 h [1] [µM] | inhibition at 10 µM [2] [%]
CCOC(=O)/C(=C/c1ccccc1Cl)CS(=O)(=O)c1ccccc1 [INF51, ethyl (Z)-3-(2-chlorophenyl)-2-((phenylsulphonyl)methyl)acrylate] | 20.1 ± 14.3 | 38.9 ± 4.5
CCOC(=O)/C(=C/c1ccccc1Cl)CSCC(NC(C)=O)C(=O)O (centres unmarked) [INF85] | > 100 | 21.3 ± 4.6
CCOC(=O)[C@@H](C[S+]([O-])c1ccccc1)[C@H](O)c1ccccc1Cl (mixture of isomers) [INF44, ethyl 3-(2-chlorophenyl)-3-hydroxy-2-((phenylsulphinyl)methyl)propanoate] | > 100 | < 10
CCOC(=O)/C(=C/c1ccccc1Cl)CSc1ccccc1 [INF42, ethyl (Z)-3-(2-chlorophenyl)-2-((phenylthio)methyl)acrylate] | > 100 | 69.1 ± 2.2
CCOC(=O)[C@H](CSc1ccccc1)[C@H](O)c1ccccc1Cl (mixture of isomers) [INF38a, Ethyl(2S,3S)-3-(2-chlorophenyl)-3-hydroxy-2-(phenylsulphanylmethyl)-propanoate and ethyl(2S,3R)-3-(2-chlorophenyl)-3-hydroxy-2-(phenylsulphanylmethyl)propanoate] | > 100 | 26.9 ± 4.9
CCOC(=O)C(Cc1ccccc1Cl)C[S+]([O-])c1ccccc1 (centres unmarked) [INF48, ethyl 2-(2-chlorobenzyl)-3-(phenylsulphinyl)propanoate] | > 35.1 | 33.6 ± 1.2
O=C(O)C1CCN(C(=O)/C(=C/c2ccccc2Cl)CSc2ccccc2)CC1 [INF187, (Z)-1-(3-(2-chlorophenyl)-2-((phenylthio)methyl)acryloyl)piperidine-4-carboxylic acid] | > 100 | < 10
O=C(O)/C(=C/c1ccccc1Cl)CSC1CCCCC1 [INF86, (Z)-3-(2-chlorophenyl)-2-((cyclohexylthio)methyl)acrylic acid] | > 100 | < 10
CCOC(=O)C(Cc1ccccc1Cl)CS(=O)(=O)C1CCCCC1 (centres unmarked) [INF111, ethyl 2-(2-chlorobenzyl)-3-(cyclohexylsulphonyl)propanoate] | 98.1 ± 4.8 | < 10
CCOC(=O)C1CCCN(C(=O)/C(=C/c2cccc(Cl)c2)CSc2ccccc2)C1 (centres unmarked) [INF230, ethyl (Z)-1-(3-(3-chlorophenyl)-2-((phenylthio)methyl)acryloyl)piperidine-3-carboxylate] | – | 39 ± 15.4
CCOC(=O)[C@@H]1CCCN(C(=O)/C(=C/c2ccccc2Cl)CSc2ccccc2)C1 [INF202, ethyl (R,Z)-1-(3-(2-chlorophenyl)-2-((phenylthio)methyl)acryloyl)piperidine-3-carboxylic acid] | – | 40.9 ± 1.2
CCOC(=O)/C(=C/c1ccccc1Cl)COc1ccccc1 [INF57, (E)-ethyl 3-(2-chlorophenyl)-2-(phenoxymethyl)acrylate] | > 100 | 34.5 ± 0.3
CCOC(=O)[C@@H](CSc1ccccc1)[C@H](O)c1ccccc1Cl (mixture of isomers) [INF38s, Ethyl(2S,3S)-3-(2-chlorophenyl)-3-hydroxy-2-(phenylsulphanylmethyl)-propanoate and ethyl(2R,3R)-3-(2-chlorophenyl)-3-hydroxy-2-(phenylsulphanylmethyl)propanoate] | > 100 | 23.5 ± 4.2
CCOC(=O)[C@H]1CCCN(C(=O)[C@@H](CSc2ccccc2)Cc2ccccc2Cl)C1 (racemic) [INF184+INF185, ethyl 1-(2-(2-chlorobenzyl)-3-(phenylthio)propanoyl)piperidine-3-carboxylate] | 75.4 ± 2.6 | –
CCOC(=O)C(CN1CCCC1)C(O)c1ccccc1Cl (stereo not drawn) [INF37 (syn), ethyl 3-(2-chlorophenyl)-3-hydroxy-2-(pyrrolidin-1-ylmethyl)propanoate] | > 100 | –
